Laboratory results from patent publication US9795643B2, “Oncolytic measles virus” (priority 2010, dated 2017).

Tested on: subcutaneously grown Hep3B tumors
Test: Murine xenograft model of human HCC (Hep3B)
Format: in vivo, nude mice
Method: To test the armed vectors pc3MerV2 Id-SCD, pMerV2 P-SCD, and pc3MerV2 Id-VP22SCD in vivo, a murine xenograft model of human HCC was applied.
To compare the armed vectors, a mouse model of subcutaneously grown Hep3B tumors was chosen. This decision was based on the facts (i) that Hep3B can be efficiently infected by MeV and support MeV replication at high levels, (ii) that in Hep3B, the conversion of 5-FC into 5-FU is fast and efficient and (iii) that over an incubation of 1-4 days after addition of the prodrug to infected cells, an increasing gap between the treatment with virus alone and the combination treatment can be observed. Additionally, a mouse model of Hep3B has been described before (Blechacz B, Splinter P L, Greiner S, Myers R, Peng K W, Federspiel M J, Russell S J, LaRusso N F. Hepatology. 2006 December; 44(6):1465-77) with a high engraftment ratio (80%, personal communication with Boris Blechacz, Mayo Clinic, Rochester, Minn., USA). In contrast, this ratio is much lower in PLC/PRF/5 (60%) and in HepG2, both determined in our laboratory.
For this in vivo experiment, six week old nude mice received subcutaneous injections of 100 μl cell suspension containing 10^6 Hep3B cells in PBS. […] The tumors were very well vascularized and appeared blue through the nude skin of the mice. After the tumors had grown to a diameter of approximately 5 mm, the mice received five intratumoral injections of the respective virus (MeV Id-SCD, MeV Id-VP22SCD or MeV P-SCD) with 2*10^6 pfu per injection and one injection daily (total dose: 10^7 pfu). Control groups were treated with medium only. On the following seven days, the mice received 500 mg/kg bodyweight 5-FC in PBS intraperitoneally. Tumor volume and weight of the animals were determined three times a week.
The combinatorial treatment (MeV-SCD+5-FC) did neither lead to any visible changes in the behavior of the animals, nor did they show reactions like enhanced sensitivity to touch. The skin of the mice looked healthy, no changes in their movement or feeding behaviors were observed and their weight remained stable.

## Nc1nc(=O)[nH]cc1F [5-FC, 5-fluorocytosine]
5-FC 500 mg/kg i.p., 7 days, no virus
  effect of administration of the prodrug alone: no effect
5-FC only group
  day before which all mice had to be sacrificed: < 50 days
Virus 5 intratumoral injections 2*10^6 pfu, 5-FC 500 mg/kg i.p. for 7 days
  median survival: 32 days
